From ChEMBL document CHEMBL1681667, “Structure-activity relationship studies of sphingosine-1-phosphate receptor agonists with N-cinnamyl-β-alanine moiety” (Bioorg Med Chem Lett, 2011)

Key:
[1] = molecular target: Sphingosine 1-phosphate receptor 1 (Homo sapiens, UniProt P21453); test: Agonist activity at human S1P1 receptor expressed in CHO cells assessed as intracellular calcium levels; type: functional, cell-based
[2] = molecular target: Sphingosine 1-phosphate receptor 3 (Homo sapiens, UniProt Q99500); test: Agonist activity at human S1P3 receptor expressed in CHO cells assessed as intracellular calcium levels; type: functional, cell-based
Sequence of Sphingosine 1-phosphate receptor 3 (Q99500 whole entry): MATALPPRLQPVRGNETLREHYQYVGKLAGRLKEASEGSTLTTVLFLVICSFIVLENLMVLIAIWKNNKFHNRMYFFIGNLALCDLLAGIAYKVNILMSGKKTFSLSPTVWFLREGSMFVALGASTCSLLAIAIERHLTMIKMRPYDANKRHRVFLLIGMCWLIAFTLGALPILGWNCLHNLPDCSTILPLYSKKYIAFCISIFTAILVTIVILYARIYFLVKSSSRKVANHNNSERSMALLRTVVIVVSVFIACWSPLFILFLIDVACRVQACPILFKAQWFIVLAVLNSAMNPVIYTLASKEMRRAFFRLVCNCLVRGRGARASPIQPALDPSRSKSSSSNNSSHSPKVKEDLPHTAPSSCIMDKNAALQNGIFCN

Mus musculus = test: Immunomodulatory activity in po dosed mouse assessed as peripheral blood lymphocyte lowering activity after 4 hrs; type: functional
[3] = Half life in rat at 30 mg/kg, po; type: ADME, organism-based; set-up: dose 30 mg/kg, route oral; conditions: in vivo
[4] = AUC (infinity) in rat at 30 mg/kg, po; type: ADME, organism-based; set-up: time infinity, dose 30 mg/kg, route oral; conditions: plasma
[5] = Cmax in rat at 30 mg/kg, po; type: ADME, organism-based; set-up: dose 30 mg/kg, route oral; conditions: in vivo
[6] = molecular target: Sphingosine 1-phosphate receptor 2 (Homo sapiens, UniProt O95136); test: Agonist activity at human S1P2 receptor expressed in CHO cells assessed as intracellular calcium levels; type: functional, cell-based
Sequence of Sphingosine 1-phosphate receptor 2 (O95136 whole entry): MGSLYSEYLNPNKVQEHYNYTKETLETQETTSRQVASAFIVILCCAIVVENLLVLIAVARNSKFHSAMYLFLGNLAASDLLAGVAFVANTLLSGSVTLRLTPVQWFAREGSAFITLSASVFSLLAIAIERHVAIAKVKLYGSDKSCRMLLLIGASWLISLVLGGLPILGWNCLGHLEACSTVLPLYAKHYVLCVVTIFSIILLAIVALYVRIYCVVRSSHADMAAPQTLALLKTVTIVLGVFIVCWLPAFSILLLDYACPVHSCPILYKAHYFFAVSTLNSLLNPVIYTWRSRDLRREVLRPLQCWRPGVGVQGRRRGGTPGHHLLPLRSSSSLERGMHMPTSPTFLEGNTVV

[7] = molecular target: Sphingosine 1-phosphate receptor 5 (Homo sapiens, UniProt Q9H228); test: Agonist activity at human S1P5 receptor expressed in CHO cells assessed as intracellular calcium levels; type: functional, cell-based
Sequence of Sphingosine 1-phosphate receptor 5 (Q9H228 whole entry): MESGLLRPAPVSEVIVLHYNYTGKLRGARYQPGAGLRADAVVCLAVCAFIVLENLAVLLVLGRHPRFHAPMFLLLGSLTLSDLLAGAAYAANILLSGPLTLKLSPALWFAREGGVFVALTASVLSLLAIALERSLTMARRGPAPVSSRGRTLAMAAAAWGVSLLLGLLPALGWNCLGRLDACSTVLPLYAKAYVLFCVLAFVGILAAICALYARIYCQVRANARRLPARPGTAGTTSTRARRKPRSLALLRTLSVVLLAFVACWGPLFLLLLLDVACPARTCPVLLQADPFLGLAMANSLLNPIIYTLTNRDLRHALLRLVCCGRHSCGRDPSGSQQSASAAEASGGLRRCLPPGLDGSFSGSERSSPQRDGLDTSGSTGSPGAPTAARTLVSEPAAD

Sequence of Sphingosine 1-phosphate receptor 1 (P21453 whole entry): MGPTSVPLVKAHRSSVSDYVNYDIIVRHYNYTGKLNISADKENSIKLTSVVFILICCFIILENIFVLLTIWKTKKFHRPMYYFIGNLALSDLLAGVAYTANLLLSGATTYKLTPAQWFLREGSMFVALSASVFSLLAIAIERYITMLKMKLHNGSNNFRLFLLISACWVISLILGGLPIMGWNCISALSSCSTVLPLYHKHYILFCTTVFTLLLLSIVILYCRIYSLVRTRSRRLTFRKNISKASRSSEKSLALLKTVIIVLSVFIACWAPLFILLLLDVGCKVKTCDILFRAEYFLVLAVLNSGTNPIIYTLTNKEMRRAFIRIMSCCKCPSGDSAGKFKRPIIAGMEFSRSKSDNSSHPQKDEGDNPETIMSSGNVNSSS

EC50 [1] [nM]	EC50 [2] [nM]	half-life [3] [h]	AUC(0-inf) [4] [µg·h/mL]	Cmax [5] [ng/mL]	EC50 [6] [nM]	EC50 [7] [nM]	SMILES	ED50 (Mus musculus) [mg/kg]
1500	> 10000						O=C(O)CCN1CCC/C(=C\c2ccc(OCCCc3ccccc3)cc2)C1	
1500	> 10000						O=C(O)CCNCCCc1ccc(OCCCCc2ccccc2)cc1	
21	> 10000	7.4					C/C(=C\CNCCC(=O)O)c1ccc(OCCCc2ccccc2)cc1	0.69
1600	> 10000						O=C(O)CCN1CCC(c2ccc(OCCCc3ccccc3)cc2)CC1	
70	3300						O=C(O)CCNC/C=C/c1ccc(OCCCc2ccccc2)cc1	4.6
2600	9000	3.8	174	28000			O=C(O)CCNCCCc1ccc(OCCCc2ccccc2)cc1	
33	1900						C/C(=C\c1ccc(OCCCc2ccccc2)cc1)CNCCC(=O)O	
2700	> 10000						O=C(O)CCNCCCc1ccc(OCCCCCCc2ccccc2)cc1	
160	4200				> 10000	170	O=C(O)CCNCCCc1ccc(OCCCCCc2ccccc2)cc1	26
930	> 10000						C/C(=C/CNCCC(=O)O)c1ccc(OCCCc2ccccc2)cc1	

SMILES	EC50 [1] [nM]	EC50 [2] [nM]	half-life [3] [h]	AUC(0-inf) [4] [µg·h/mL]	Cmax [5] [ng/mL]	EC50 [6] [nM]	EC50 [7] [nM]	ED50 (Mus musculus) [mg/kg]
O=C(O)CCN1CC=C(c2ccc(OCCCc3ccccc3)cc2)CC1	45	1200						1.4
